Laboratory results reported in patent US10428051B2 (priority 2015, dated 2019).

target: human σ1 receptor (Homo sapiens, UniProt Q99720); assay: biochemical; format: binding; set-up: μ and σ1 dual (binding to the σ1 receptor and the μ-opioid receptor expressed as Ki): key to the marks not given beside the values; settings: not given
Sequence (Q99720 whole entry): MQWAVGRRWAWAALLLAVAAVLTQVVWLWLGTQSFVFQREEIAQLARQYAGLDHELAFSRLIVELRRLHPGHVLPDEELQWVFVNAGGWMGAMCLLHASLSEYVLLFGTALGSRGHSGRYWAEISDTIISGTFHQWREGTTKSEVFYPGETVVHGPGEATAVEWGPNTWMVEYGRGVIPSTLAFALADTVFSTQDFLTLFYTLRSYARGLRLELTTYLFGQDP

Compound | μ and σ1 dual (binding to the σ1 receptor and the μ-opioid receptor expressed as Ki) | Ki [nM]
COCC(=O)N(CC1(N2CCN(CC(C)C)CC2)CCOCC1)c1cccc(C(F)(F)F)n1 [Example 39, N-((4-(4-isobutylpiperazin-1-yl)tetrahydro-2H-pyran-4-yl)methyl)-2-methoxy-N-(6-(trifluoromethyl)pyridin-2-yl)acetamide] | ++ | 
CCC(=O)N(CC(C)(C)N1CCN(CCc2ncccc2F)CC1)c1ccccc1 [Example 72, N-(2-(4-(2-(3-fluoropyridin-2-yl)ethyl)piperazin-1-yl)-2-methylpropyl)-N-phenylpropionamide] | ++ | 
COCC(=O)N(CC1(N2CCN(Cc3ccccc3)CC2)CCOCC1)c1ccccc1 [Example 37, N-((4-(4-benzylpiperazin-1-yl)tetrahydro-2H-pyran-4-yl)methyl)-2-methoxy-N-phenylacetamide] |  | < 500
CCC(=O)N(CC1(N2CCN(Cc3ccccc3)CC2)CCOC2(CCCC2)C1)c1cccc(C(F)(F)F)n1 (stereo not drawn) [Example 89, N-((9-(4-benzylpiperazin-1-yl)-6-oxaspiro[4.5]decan-9-yl)methyl)-N-(6-(trifluoromethyl)pyridin-2-yl)propionamide] |  | < 100
CCC(=O)N(CC1(N2CCN(CCOC(C)C)CC2)CC1)c1cccc(C(F)(F)F)n1 [Example 179, N-((1-(4-(2-isopropoxyethyl)piperazin-1-yl)cyclopropyl)methyl)-N-(6-(trifluoromethyl)pyridin-2-yl)propionamide] |  | < 500
CCC(=O)N(CC1(N2CCN(CC(C)C)CC2)CCOCC1)c1ccccc1 [Example 135, N-((4-(4-isobutylpiperazin-1-yl)tetrahydro-2H-pyran-4-yl)methyl)-N-phenylpropionamide] |  | < 500
CCC(=O)N(CC1(N2CCN(Cc3cccc(F)c3)CC2)CCOCC1)c1ccccc1 [Example 100, N-((4-(4-(3-fluorobenzyl)piperazin-1-yl)tetrahydro-2H-pyran-4-yl)methyl)-N-phenylpropionamide] |  | < 100
CCC(=O)N(CC(C)(C)N1CCN(CC(C)C)CC1)c1ncccc1F [Example 74, N-(3-fluoropyridin-2-yl)-N-(2-(4-isobutylpiperazin-1-yl)-2-methylpropyl)propionamide] | ++ | 
CCC(=O)N(CC1(N2CCN(Cc3ccccc3)CC2)CC1)c1ccc(C(F)(F)F)cn1 [Example 94, N-((1-(4-benzylpiperazin-1-yl)cyclopropyl)methyl)-N-(5-(trifluoromethyl)pyridin-2-yl)propionamide] | ++ | 
CCC(=O)N(CC1(N2CCN(Cc3ccccc3)CC2)CCOC(C)(C)C1)c1ccccn1 (stereo not drawn) [Example 16, N-((4-(4-benzylpiperazin-1-yl)-2,2-dimethyltetrahydro-2H-pyran-4-yl)methyl)-N-(pyridin-2-yl)propionamide] |  | < 500
CCC(=O)N(CC1(N2CCN(CCOC(F)(F)F)CC2)CCOCC1)c1cccc(C(F)(F)F)n1 [Example 141, N-((4-(4-(2-(trifluoromethoxy)ethyl)piperazin-1-yl)tetrahydro-2H-pyran-4-yl)methyl)-N-(6-(trifluoromethyl)pyridin-2-yl)propionamide] |  | < 500
CCC(=O)N(CC1(N2CCN(Cc3ccccc3)CC2)CCOCC1)c1ccc(F)c(C#N)n1 [Example 61, N-((4-(4-benzylpiperazin-1-yl)tetrahydro-2H-pyran-4-yl)methyl)-N-(6-cyano-5-fluoropyridin-2-yl)propionamide] |  | < 500
CCC(=O)N(CC1(N2CCN(CCc3cccnc3)CC2)CCOCC1)c1cccc(C(F)(F)F)n1 [Example 201, N-((4-(4-(2-(pyridin-3-yl)ethyl)piperazin-1-yl)tetrahydro-2H-pyran-4-yl)methyl)-N-(6-(trifluoromethyl)pyridin-2-yl)propionamide] | ++ | 
CCC(=O)N(CC1(N2CCN(CC(C)(C)F)CC2)CCOCC1)c1cccc(C(F)(F)F)n1 [Example 190, N-((4-(4-(2-fluoro-2-methylpropyl)piperazin-1-yl)tetrahydro-2H-pyran-4-yl)methyl)-N-(6-(trifluoromethyl)pyridin-2-yl)propionamide] |  | < 500
CCOCCN1CCN(C2(CN(C(=O)CC)c3ncccc3F)CCOCC2)CC1 [Example 156, N-((4-(4-(2-ethoxyethyl)piperazin-1-yl)tetrahydro-2H-pyran-4-yl)methyl)-N-(3-fluoropyridin-2-yl)propionamide] | ++ | 
CCC(=O)N(CC1(N2CCN(Cc3ccccc3)CC2)CCOCC1)c1cccc(F)c1 [Example 5, N-((4-(4-benzylpiperazin-1-yl)tetrahydro-2H-pyran-4-yl)methyl)-N-(3-fluorophenyl)propionamide] |  | < 100

Compound | μ and σ1 dual (binding to the σ1 receptor and the μ-opioid receptor expressed as Ki) | Ki [nM]
CCC(=O)N(CC1(N2CCN(Cc3ccccc3)CC2)CCC1)c1cccc(C(F)(F)F)n1 [Example 197, N-((1-(4-benzylpiperazin-1-yl)cyclobutyl)methyl)-N-(6-(trifluoromethyl)pyridin-2-yl)propionamide] |  | < 100
CCC(=O)N(CC1(N2CCN(Cc3ccccc3)CC2)CCOCC1)c1nc(C(F)(F)F)ccc1C#N [Example 60, N-((4-(4-benzylpiperazin-1-yl)tetrahydro-2H-pyran-4-yl)methyl)-N-(3-cyano-6-(trifluoromethyl)pyridin-2-yl)propionamide] |  | < 500
CCC(=O)N(CC1(N2CCN(CC(C)C)CC2)CCOC(C)(C)C1)c1cccc(C(F)(F)F)n1 (stereo not drawn) [Example 160, N-((4-(4-isobutylpiperazin-1-yl)-2,2-dimethyltetrahydro-2H-pyran-4-yl)methyl)-N-(6-(trifluoromethyl)pyridin-2-yl)propionamide] |  | < 500
CCC(=O)N(CC1(N2CCN(CCOC(C)C)CC2)CCOC(C)(C)C1)c1cccc(C#N)n1 (stereo not drawn) [Example 172, N-(6-cyanopyridin-2-yl)-N-((4-(4-(2-isopropoxyethyl)piperazin-1-yl)-2,2-dimethyltetrahydro-2H-pyran-4-yl)methyl)propionamide] |  | > 500
CCC(=O)N(CC1(N2CCN(Cc3ccccc3)CC2)CC1)c1cccnc1 [Example 36, N-((1-(4-benzylpiperazin-1-yl)cyclopropyl)methyl)-N-(pyridin-3-yl)propionamide] |  | < 500
CCC(=O)N(CC1(N2CCN(Cc3ccccc3)CC2)CCOCC1)c1cncc(C(F)(F)F)c1 [Example 9, N-((4-(4-benzylpiperazin-1-yl)tetrahydro-2H-pyran-4-yl)methyl)-N-(5-(trifluoromethyl)pyridin-3-yl)propionamide] | ++ | 
CCC(=O)N(CC1(N2CCN(Cc3ccccc3)CC2)CC1)c1cncc(F)c1 [Example 93, N-((1-(4-benzylpiperazin-1-yl)cyclopropyl)methyl)-N-(5-fluoropyridin-3-yl)propionamide] |  | < 500
CCC(=O)N(CC1(N2CCN(Cc3ccccc3)CC2)CCOCC1)c1ccccc1OC [Example 3, N-((4-(4-benzylpiperazin-1-yl)tetrahydro-2H-pyran-4-yl)methyl)-N-(2-methoxyphenyl)propionamide] |  | < 100
CCOCCCN1CCN(C2(CN(C(=O)CC)c3cccc(C(F)(F)F)n3)CCOCC2)CC1 [Example 150, N-((4-(4-(3-ethoxypropyl)piperazin-1-yl)tetrahydro-2H-pyran-4-yl)methyl)-N-(6-(trifluoromethyl)pyridin-2-yl)propionamide] |  | < 500
CCC(=O)N(CC1(N2CC3CN(CC(C)C)CC3C2)CCOCC1)c1cccc(C(F)(F)F)n1 (stereo not drawn) [Example 199, N-((4-(5-isobutylhexahydropyrrolo[3,4-c]pyrrol-2(1H)-yl)tetrahydro-2H-pyran-4-yl)methyl)-N-(6-(trifluoromethyl)pyridin-2-yl)propionamide] |  | > 500
CCC(=O)N(CC1(N2CCN(Cc3ccccc3)CC2)CCOCC1)c1cc(C(F)(F)F)ccn1 [Example 8, N-((4-(4-benzylpiperazin-1-yl)tetrahydro-2H-pyran-4-yl)methyl)-N-(4-(trifluoromethyl)pyridin-2-yl)propionamide] |  | < 500
CCC(=O)N(CC1(N2CCN(Cc3cccc(F)c3)CC2)CCOCC1)c1ccccn1 [Example 110, N-((4-(4-(3-fluorobenzyl)piperazin-1-yl)tetrahydro-2H-pyran-4-yl)methyl)-N-(pyridin-2-yl)propionamide] |  | < 500
CCC(=O)N(CC1(N2CCN(CCOCC(C)(C)O)CC2)CCOCC1)c1cccc(C(F)(F)F)n1 [Example 186, N-((4-(4-(2-(2-hydroxy-2-methylpropoxy)ethyl)piperazin-1-yl)tetrahydro-2H-pyran-4-yl)methyl)-N-(6-(trifluoromethyl)pyridin-2-yl)propionamide] | ++ | 
CCC(=O)N(CC)CC1(N2CCN(Cc3ccccc3)CC2)CCOCC1 [Example 99, N-((4-(4-benzylpiperazin-1-yl)tetrahydro-2H-pyran-4-yl)methyl)-N-ethylpropionamide] | ++ | 
CCC(=O)N(CC1(N2CCN(CCO)CC2)CCOCC1)c1cccc(C(F)(F)F)n1 [Example 148, N-((4-(4-(2-hydroxyethyl)piperazin-1-yl)tetrahydro-2H-pyran-4-yl)methyl)-N-(6-(trifluoromethyl)pyridin-2-yl)propionamide] |  | > 500

same assay, conditions: combined class for both Ki-σ1 (assay A1) and Ki-μ (assay A2); human receptors, radioligand binding; read-out: μ and σ1 dual (binding to the σ1 receptor and the μ-opioid receptor expressed as Ki)

Compound | Ki [nM]
CN1CCC(CN(C(=O)c2nccs2)c2ccccc2)(N2CCN(Cc3ccccc3)CC2)CC1 [Example 41, N-((4-(4-benzylpiperazin-1-yl)-1-methylpiperidin-4-yl)methyl)-N-phenylthiazole-2-carboxamide] | > 500

same assay, conditions: read-out: μ and σ1 dual (binding to the σ1 receptor and the μ-opioid receptor expressed as Ki)

Ki [nM] | Compound
> 500 | CCOCCN1CC2CN(C3(CN(C(=O)CC)c4cccc(C(F)(F)F)n4)CCOCC3)CC2C1 (stereo not drawn) [Example 200, N-((4-(5-(2-ethoxyethyl)hexahydropyrrolo[3,4-c]pyrrol-2(1H)-yl)tetrahydro-2H-pyran-4-yl)methyl)-N-(6-(trifluoromethyl)pyridin-2-yl)propionamide]
